Among the data in the OligoGym collection are target mRNA inhibition values, retold here.

Where “and” joins values, the source holds several entries; their conditions need not be identical. Equal values may be shown once. After the bases stand the sugars from the 5' end (letter, count) and the backbone: PS all phosphorothioate, else s phosphorothioate and o phosphodiester by linkage. Methylation of C is not given here. e = 2'-O-(2-methoxyethyl) (MOE); k = constrained ethyl (cEt); d = 2'-deoxy (DNA)

For the data set, the target named is IRF4. The settings on record: ASO.

For “TCAGTTTGTGAAGCAT (sugars kkdddddddddekeke, PS)”, under “MM.1R, 1 µM”, the target mRNA inhibition worked out at 45%. The same measure, in the same setting: in the case of “AGTTCATGTAAAGTCT (sugars k2 d9 e3 k2, PS)” it was 41% and 30%.

Take GGCTACAGGCACGGCT (sugars k3 d10 k3, PS): where the note is “SK-MEL-28, 4 µM”, the target mRNA inhibition was determined as 42%. For CTCCGGAGTCAGTGCT (sugars k3 d10 k3, PS), the target mRNA inhibition (MM.1R, 1 µM) amounted to 1%. The same measure, in the same setting: in the case of “AGTTCATGTAAAGTCT (sugars kkdddddddddkekek, PS)” it was 42% and 31%. The same measure, in the same setting: in the case of ATTATAGAGCATCACT (sugars k3 d10 k3, PS) it was -6%.

As for CCAGGATTCGCCATGG (sugars k3 d10 k3, PS), where the note is “MM.1R, 1 µM”, the target mRNA inhibition was 13%. Consider CCTGAAGCTTAGTTAT (sugars k3 d10 k3, PS), for which the target mRNA inhibition (SK-MEL-28, 4 µM) worked out at 35%. Turning to “CTGCTTGAGGTTTTCC (sugars kdddddddddkekeke, PS)”, the target mRNA inhibition (MM.1R, 1 µM) was determined as 20%. In the case of CCGGGTTCCTCCACCC (sugars k3 d10 k3, PS), for the setting “SK-MEL-28, 4 µM”, the target mRNA inhibition is 9%. As for CCACGGACGGAGGCGG (sugars k3 d10 k3, PS), the target mRNA inhibition (MM.1R, 1 µM) was -6%. Consider ACTAAATTCTAGTTTG (sugars k3 d10 k3, PS), for which the target mRNA inhibition (SK-MEL-28, 4 µM) was 0%. In the case of “CTCTATAGTGTTCCAG (sugars kddddddddddkekek, PS)”, where the note is “MM.1R, 1 µM”, the target mRNA inhibition stood at 24%. CAGCATGACAGGGCGA (sugars k3 d10 k3, PS): the target mRNA inhibition (SK-MEL-28, 4 µM) came to 56%. Take GCAAAACCAGTACAGT (sugars k3 d10 k3, PS): the target mRNA inhibition (MM.1R, 0.0625 µM) is 3%; the target mRNA inhibition (MM.1R, 0.074 µM) worked out at 17%; the target mRNA inhibition (MM.1R, 0.222 µM) worked out at 0%; the target mRNA inhibition (MM.1R, 0.25 µM) amounted to 6%; the target mRNA inhibition (MM.1R, 0.666 µM) was found to be 4%; the target mRNA inhibition (MM.1R, 1 µM) worked out at 11%. Also, the target mRNA inhibition was 13% (MM.1R, 2 µM); 26% (MM.1R, 4 µM); 58% (SK-MEL-28, 4 µM). As to CCTAGAGGTGCCTTCT (sugars k3 d10 k3, PS), the target mRNA inhibition (SK-MEL-28, 4 µM) worked out at 41%. On to GGGCATGTGACTGGAG (sugars k3 d10 k3, PS), for which the target mRNA inhibition (SK-MEL-28, 4 µM) turned out to be 50%. Still for that read-out and setting: in the case of AACTGGATTGATGTGA (sugars k3 d10 k3, PS) it was 77%. In the case of “GTAGTATGAGAAACGG (sugars k2 d9 e3 k2, PS)”, the target mRNA inhibition (MM.1R, 1 µM) came to 51%. “ACGTGTGCTTGCCAAG (sugars kkdddddddddkekek, PS)”: for the setting “MM.1R, 1 µM”, the target mRNA inhibition is 49% and 44%. On the same count and under the same terms, with “AAGCTTGATAAAGGCT (sugars k2 d9 e3 k2, PS)” the figure was 53%. For the sequence TAGTTAAGTACTTGGA (sugars k3 d10 k3, PS), for the setting “SK-MEL-28, 4 µM”, the target mRNA inhibition came to 56%. Regarding CCGTTCCTTTTTTAGT (sugars k3 d10 k3, PS), the target mRNA inhibition (MM.1R, 1 µM) is -3%. With TTGAAAGATTCAGCCT (sugars k3 d10 k3, PS), the target mRNA inhibition (SK-MEL-28, 4 µM) turned out to be 3%. On to TCTTATGCATGTTCCT (sugars k3 d10 k3, PS), for which the target mRNA inhibition (SK-MEL-28, 4 µM) amounted to 62%.

For CAGTGGTGGCCGCGGG (sugars k3 d10 k3, PS), the target mRNA inhibition (SK-MEL-28, 4 µM) came to 27%. As to “TACTGCTTGAGGTTTT (sugars kkdddddddddkdkdk, PS)”, the target mRNA inhibition (MM.1R, 1 µM) was 15%. With CTGATGTGTTCTGGTA (sugars k3 d10 k3, PS), the target mRNA inhibition (MM.1R, 0.0625 µM) was 14% and 36%; the target mRNA inhibition (MM.1R, 0.25 µM) is 27% and 41%; the target mRNA inhibition (MM.1R, 1 µM) was 45% and 53%; the target mRNA inhibition (MM.1R, 4 µM) was 69% and 70%. Turning to “CCTCAGTTTGTGAAGC (sugars kkkddddddddkekek, PS)”, the target mRNA inhibition (MM.1R, 1 µM) stood at 3%.

GTTTGTGAAGCATCCT (sugars k3 d10 k3, PS): under “SK-MEL-28, 4 µM”, the target mRNA inhibition worked out at 65%. On the same count and under the same terms, with GCTATCAGGATCTCAA (sugars k3 d10 k3, PS) the figure was 38%; with CACCACTATTCGAGAG (sugars k3 d10 k3, PS), 48%.

For the sequence GGCACATCAATGTTTT (sugars k3 d10 k3, PS), the target mRNA inhibition (MM.1R, 1 µM) is 18% and 14%. On the same count and under the same terms, in the case of AAAGGGTAAGCACTGA (sugars k3 d10 k3, PS) it was 19%; in that of GGGTAGAGCAGCTCCC (sugars k3 d10 k3, PS), -16%. Still for that read-out and setting: in the case of “TAGTATGAGAAACGGC (sugars kkdddddddddekeke, PS)” it was 50%. As for CGCTTTCACTAAAGTC (sugars k3 d10 k3, PS), where the note is “SK-MEL-28, 4 µM”, the target mRNA inhibition amounted to 71%. Same read-out and setting: in the case of GGGTTAAATATTCTTC (sugars k3 d10 k3, PS) it was 52%; in that of ATCAAGTAAAGTGATC (sugars k3 d10 k3, PS), 29%; in that of CACATCACTTGGTCAA (sugars k3 d10 k3, PS), 72%. On the same count and under the same terms, in the case of CCCCTCTCCAGGTGGC (sugars k3 d10 k3, PS) it was 13%. Consider GTCTGAGTTGTACAGG (sugars k3 d10 k3, PS), for which the target mRNA inhibition (MM.1R, 1 µM) was 52% and 57%. Turning to CCGGAAGAAGGCACCT (sugars k3 d10 k3, PS), the target mRNA inhibition (SK-MEL-28, 4 µM) was determined as 17%. Same read-out and setting: with GTGAAGCATCCTTTCC (sugars k3 d10 k3, PS) the figure was 63%; with TTAGAATGCATAACAC (sugars k3 d10 k3, PS), 44%.

On to TTCAGACAGATGCAGC (sugars k3 d10 k3, PS), for which the target mRNA inhibition (SK-MEL-28, 4 µM) was 62%. The same measure, in the same setting: with TATACTTAAGCAAGTG (sugars k3 d10 k3, PS) the figure was 47%. For TGACATAAAGGACCCC (sugars k3 d10 k3, PS), the target mRNA inhibition (SK-MEL-28, 4 µM) came out at 48%. Still for that read-out and setting: in the case of TTGAAATGGAGCATCC (sugars k3 d10 k3, PS) it was 22%. ACTAATTCCATAGAGC (sugars k3 d10 k3, PS): the target mRNA inhibition (MM.1R, 0.0625 µM) is -18%; the target mRNA inhibition (MM.1R, 0.074 µM) was -12%; the target mRNA inhibition (MM.1R, 0.222 µM) is -13%; the target mRNA inhibition (MM.1R, 0.25 µM) was -12%; the target mRNA inhibition (MM.1R, 0.666 µM) is -10%; the target mRNA inhibition (MM.1R, 1 µM) was -17%. Further, the target mRNA inhibition is, setting by setting: (MM.1R, 2 µM) -4%; (MM.1R, 4 µM) -6%; (SK-MEL-28, 4 µM) 79%. For “GTAGTATGAGAAACGG (sugars kkdddddddddkdkdk, PS)”, where the note is “MM.1R, 1 µM”, the target mRNA inhibition was determined as 32%.

As for AAATCACTTGTCTTGG (sugars k3 d10 k3, PS), the target mRNA inhibition (SK-MEL-28, 4 µM) was 49%. CCAAAGTTACATCCTA (sugars k3 d10 k3, PS): the target mRNA inhibition (SK-MEL-28, 4 µM) was 39%. Consider CTGCAGTTCACGAAAC (sugars k3 d10 k3, PS), for which the target mRNA inhibition (SK-MEL-28, 4 µM) turned out to be 38%. For the sequence CTGGCATTGAGACGGG (sugars k3 d10 k3, PS), the target mRNA inhibition (SK-MEL-28, 4 µM) came out at 61%. As to TAGGGATACAGCAGGC (sugars k3 d10 k3, PS), where the note is “SK-MEL-28, 4 µM”, the target mRNA inhibition worked out at 73%. In the case of GGCTAGCTGTATTTAT (sugars k3 d10 k3, PS), the target mRNA inhibition (SK-MEL-28, 4 µM) is 37%. As to CGCGGAGGACCTCGCC (sugars k3 d10 k3, PS), the target mRNA inhibition (MM.1R, 1 µM) is -7%. Still for that read-out and setting: with CTAGTCGCGCAAGTCT (sugars k3 d10 k3, PS) the figure was -4%; with ATGTTAGCCAATTCCT (sugars k3 d10 k3, PS), 30% and 33%. For the sequence ATTGAGGCATACAGTG (sugars k3 d10 k3, PS), the target mRNA inhibition (SK-MEL-28, 4 µM) came out at 30%. GAGTGCAGGAGAGGCT (sugars k3 d10 k3, PS): the target mRNA inhibition (SK-MEL-28, 4 µM) came to 31%. Take “AAGCAGTGATGTCAGG (sugars k2 d9 e3 k2, PS)”: the target mRNA inhibition (MM.1R, 1 µM) is 62% and 51%. TTCACGCACCATTCAG (sugars k3 d10 k3, PS): where the note is “SK-MEL-28, 4 µM”, the target mRNA inhibition turned out to be 16%. Turning to AGGTCTGAGTTGTACA (sugars k3 d10 k3, PS), the target mRNA inhibition (MM.1R, 1 µM) is 55% and 45%. For the sequence ATCAGTCTCAAAAACG (sugars k3 d10 k3, PS), under “SK-MEL-28, 4 µM”, the target mRNA inhibition amounted to 41%. With ATGGACCACGCAGCCT (sugars k3 d10 k3, PS), the target mRNA inhibition (SK-MEL-28, 4 µM) stood at 39%.

For AGTAATTTTAAGGCCC (sugars k3 d10 k3, PS), under “SK-MEL-28, 4 µM”, the target mRNA inhibition was determined as 60%. On the same count and under the same terms, with ATTACTAGATTGTAGG (sugars k3 d10 k3, PS) the figure was 50%.

For the sequence TAATTACTGCTTGAGG (sugars k3 d10 k3, PS), the target mRNA inhibition (MM.1R, 0.074 µM) is 9%; the target mRNA inhibition (MM.1R, 0.222 µM) was determined as 31%; the target mRNA inhibition (MM.1R, 0.666 µM) amounted to 54%; the target mRNA inhibition (MM.1R, 1 µM) was 62%; the target mRNA inhibition (MM.1R, 2 µM) was 77%.

GATTAATTCTCCTATG (sugars k3 d10 k3, PS): under “MM.1R, 1 µM”, the target mRNA inhibition is -19%. In the case of CAGACATACCTACAAG (sugars k3 d10 k3, PS), the target mRNA inhibition (SK-MEL-28, 4 µM) turned out to be 44%. Still for that read-out and setting: in the case of ATAGTGCAATGAAATG (sugars k3 d10 k3, PS) it was 36%; in that of TGCCTTGTGACATAAA (sugars k3 d10 k3, PS), 45%; in that of ACACATTTGAGAGCTA (sugars k3 d10 k3, PS), 69%.

On to TGAGATGCGGAGGTTC (sugars k3 d10 k3, PS), for which the target mRNA inhibition (MM.1R, 1 µM) is 33% and 27%. Turning to CGCCGGAGGCCGCCGT (sugars k3 d10 k3, PS), the target mRNA inhibition (SK-MEL-28, 4 µM) stood at 3%. Still for that read-out and setting: with AGGAAGCCGTTCCTTT (sugars k3 d10 k3, PS) the figure was 42%. For CGCATAGGTCCTTCAG (sugars k3 d10 k3, PS), the target mRNA inhibition (MM.1R, 1 µM) was determined as 6%. For the sequence CACGAGGTTGCCGAGA (sugars k3 d10 k3, PS), the target mRNA inhibition is -3% (MM.1R, 0.0625 µM); 4% (MM.1R, 0.074 µM); 7% (MM.1R, 0.222 µM); 9% (MM.1R, 0.25 µM); 22% (MM.1R, 0.666 µM); 48% (MM.1R, 1 µM). Moreover, the target mRNA inhibition turned out to be 34% (MM.1R, 2 µM); 62% (MM.1R, 4 µM); 64% (SK-MEL-28, 4 µM). With AAACCAGTACAGTCCA (sugars k3 d10 k3, PS), the target mRNA inhibition (MM.1R, 1 µM) is -23%. Still for that read-out and setting: in the case of “ACTGTTACCGATGCTT (sugars kkddddddddddkeke, PS)” it was 30% and 48%.
